# Test results published in US11541107B2, “Peptides and T cells for use in immunotherapeutic treatment of various cancers” (Immatics Biotechnologies GmbH, priority 2015, dated 2023).
# Test system: HLA-A*24
# Assay: MHC binding assay, UV-ligand exchange with beta2m ELISA, HLA-A*24
# Parameters: species or system human
# Conditions: binding to HLA-A*24 ranged by peptide exchange yield (UV-ligand exchange, beta2m ELISA)
# From the text: Candidate peptides for T cell based therapies according to the present invention were further tested for their MHC binding capacity (affinity). The individual peptide-MHC complexes were produced by UV-ligand exchange, where a UV-sensitive peptide is cleaved upon UV-irradiation, and exchanged with the peptide of interest as analyzed. Only peptide candidates that can effectively bind and stabilize the peptide-receptive MHC molecules prevent dissociation of the MHC complexes. To determine the yield of the exchange reaction, an ELISA was performed based on the detection of the light chain (ß2 m) of stabilized MHC complexes. The assay was performed as generally described in Rodenko et al. (Rodenko et al., 2006).
# 96 well MAXISorp plates (NUNC) were coated over night with 2 ug/ml streptavidin in PBS at room temperature, washed 4× and blocked for 1 h at 37° C. in 2% BSA containing blocking buffer. […] Peptide-MHC monomers of the UV-exchange reaction were diluted 100 fold in blocking buffer. Samples were incubated for 1 h at 37° C., washed four times, incubated with 2 ug/ml HRP conjugated anti-β2 m for 1h at 37° C., washed again and detected with TMB solution that is stopped with […]. Absorption was measured at 450 nm. Candidate peptides that show a high exchange yield (preferably higher than 50%, most preferred higher than 75%) are generally preferred for a generation and production of antibodies or fragments thereof, and/or T cell receptors or fragments thereof, as they show sufficient avidity to the MHC molecules and prevent dissociation of the MHC complexes.
row,Substance,Peptide exchange
1,205 (VYPVVLNQI; listed as Homo sapiens) [compound 205],+++ (50%-75% = +++)
2,139 (IFGIFPNQF; listed as Homo sapiens) [compound 139],+++ (50%-75% = +++)
3,138 (VYNAVSTSF; listed as Homo sapiens) [compound 138],++ (20%-49% = ++)
4,370 (RFIGIPNQF; listed as Homo sapiens) [compound 370],+++ (50%-75% = +++)
5,349 (QYSIISNVF; listed as Homo sapiens) [compound 349],+++ (50%-75% = +++)
6,108 (PYLVVIHTL; listed as Homo sapiens) [compound 108],+++ (50%-75% = +++)
7,272 (RYVFPLPYL; listed as Homo sapiens) [compound 272],++++ (>=75% = ++++)
8,289 (FFHEGQYVF; listed as Homo sapiens) [compound 289],++++ (>=75% = ++++)
9,237 (KYVGQLAVL; listed as Homo sapiens) [compound 237],+++ (50%-75% = +++)
10,155 (IYKWITDNF; listed as Homo sapiens) [compound 155],++++ (>=75% = ++++)
11,352 (QYGGDLTNTF; listed as Homo sapiens) [compound 352],+++ (50%-75% = +++)
12,381 (KYPASSSVF; listed as Homo sapiens) [compound 381],+++ (50%-75% = +++)
13,239 (VYAIFRILL; listed as Homo sapiens) [compound 239],+++ (50%-75% = +++)
14,316 (VYFEGSDFKF; listed as Homo sapiens) [compound 316],+++ (50%-75% = +++)
15,311 (EYLQNLNHI; listed as Homo sapiens) [compound 311],++++ (>=75% = ++++)
16,179 (TYIPVGLGRLL; listed as Homo sapiens) [compound 179],+++ (50%-75% = +++)

row,Substance,Peptide exchange
1,210 (IYAGVGEFSF; listed as Homo sapiens) [compound 210],++++ (>=75% = ++++)
2,168 (RYLEAALRL; listed as Homo sapiens) [compound 168],+++ (50%-75% = +++)
3,200 (VFIHHLPQF; listed as Homo sapiens) [compound 200],+++ (50%-75% = +++)
4,113 (IYSFHTLSF; listed as Homo sapiens) [compound 113],+++ (50%-75% = +++)
5,140 (RYLINSYDF; listed as Homo sapiens) [compound 140],++++ (>=75% = ++++)
6,195 (AYIKGGWIL; listed as Homo sapiens) [compound 195],+++ (50%-75% = +++)
7,318 (TYSNSAFQYF; listed as Homo sapiens) [compound 318],+++ (50%-75% = +++)
8,178 (NYSSAVQKF; listed as Homo sapiens) [compound 178],+++ (50%-75% = +++)
9,171 (NYEDHFPLL; listed as Homo sapiens) [compound 171],+++ (50%-75% = +++)
10,261 (GYIKLINFI; listed as Homo sapiens) [compound 261],++++ (>=75% = ++++)
11,117 (IYLSDLTYI; listed as Homo sapiens) [compound 117],+++ (50%-75% = +++)
12,100 (VYIESRIGTSTSF; listed as Homo sapiens) [compound 100],+++ (50%-75% = +++)
13,188 (GYKTFFNEF; listed as Homo sapiens) [compound 188],+++ (50%-75% = +++)
14,384 (RYFDVGLHNF; listed as Homo sapiens) [compound 384],+++ (50%-75% = +++)
15,220 (SYSEIKDFL; listed as Homo sapiens) [compound 220],++++ (>=75% = ++++)
16,173 (QYLEKYYNL; listed as Homo sapiens) [compound 173],++++ (>=75% = ++++)
